Results taken from the NIST ThermoML archive (doi:10.1021/acs.jced.8b01078).

Conditions: Liquid, Closed cell (Static) method

O [water]
Conditions | vapor or sublimation pressure [kPa]
313.16 K | 7.46
323.16 K | 12.54
333.16 K | 20.24
343.16 K | 31.54
353.16 K | 48.25
363.16 K | 70.49
373.16 K | 101.98
